This is an account of results in patent US7192746B2, “α-Isomaltosyltransferase, process for producing the same and use thereof” (Kabushiki Kaisha Hayashibara Seibutsu Kagaku Kenkyujo, priority 2000, dated 2007).

Structures are written as SMILES.

One data set can be described thus: Thermostability. It counts as physicochemical. The following applies: 10% (w/v) aqueous solution, 120° C.; for Purity: HPLC. Here is the method:
After the heating, the aqueous solution was cooled under atmospheric conditions and measured for coloration degree and determined for purity on HPLC in Experiment 1. The coloration degree was evaluated based on the absorbance in a cell with a 1-cm light pass at a wavelength of 480 nm.

For data set [1], the system named is α-isomaltosyl-transferring enzyme from Arthrobacter globiformis A19. Put plainly: Specificity to transferring acceptor. The data set is classed as biochemical. The following applies: partially purified enzyme, panose as saccharide donor, 10 units/g substrate, 3.2% (w/v), 30° C., pH 6.0, 24 hours. An outline of the steps: (§1)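 Panose donor + test saccharide (equimolar-equal conc.), 3.2% (w/v) total, 10 units/g substrate enzyme; 30° C., pH 6.0, 24 h. GLC (FID) for mono/disaccharide acceptors, HPLC (RI) for tri- and larger. Scored +/−.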

Data set [2] has as its system α-isomaltosyl-transferring enzyme from Arthrobacter ramosus S1. Nature of the data set: Specificity to transferring acceptor. The data set is classed as biochemical. The following applies: panose as saccharide donor, 10 units/g substrate, 3.2% (w/v), 30° C., pH 6.0, 24 hours. The method in brief:
as §1

Data set [3] has as its system α-isomaltosyl-transferring enzyme from Bacillus globisporus C11. Put plainly: Specificity to transferring acceptor. The data set is classed as biochemical. The following applies: panose as saccharide donor, 10 units/g substrate, 3.2% (w/v), 30° C., pH 6.0, 24 hours. The method in brief:
as §1

Data set [4] concerns α-isomaltosyl-transferring enzyme from Bacillus globisporus C9. Put plainly: Specificity to transferring acceptor. It counts as biochemical. The following applies: panose as saccharide donor, 10 units/g substrate, 3.2% (w/v), 30° C., pH 6.0, 24 hours. An outline of the steps: as §1
In data set [5] the test system is α-isomaltosyl-transferring enzyme from Bacillus globisporus N75. Put plainly: Specificity to transferring acceptor. The data set is classed as biochemical. The following applies: panose as saccharide donor, 10 units/g substrate, 3.2% (w/v), 30° C., pH 6.0, 24 hours. The method in brief:
as §1

The next data set deals with T1, amylopsin (Homo sapiens, UniProt P04746).
T1 sequence (P04746 16-511): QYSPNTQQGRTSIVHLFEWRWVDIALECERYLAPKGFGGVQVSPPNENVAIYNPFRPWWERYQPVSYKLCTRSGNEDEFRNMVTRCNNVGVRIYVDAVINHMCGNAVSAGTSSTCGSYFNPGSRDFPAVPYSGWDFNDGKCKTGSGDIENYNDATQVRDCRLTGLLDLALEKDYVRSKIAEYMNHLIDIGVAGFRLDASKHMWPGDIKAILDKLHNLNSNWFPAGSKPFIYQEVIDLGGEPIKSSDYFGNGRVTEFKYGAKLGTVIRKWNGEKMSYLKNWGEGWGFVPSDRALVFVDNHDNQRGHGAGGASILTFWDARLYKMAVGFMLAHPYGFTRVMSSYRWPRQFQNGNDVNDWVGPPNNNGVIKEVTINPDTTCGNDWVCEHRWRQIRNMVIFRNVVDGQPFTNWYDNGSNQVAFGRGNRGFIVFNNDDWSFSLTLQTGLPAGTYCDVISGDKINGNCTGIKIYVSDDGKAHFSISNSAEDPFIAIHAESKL
Nature of the data set: Digestion test in vitro.

Data set [6] relates to small intestinal mucosal enzyme. Nature of the data set: Digestion test in vitro.

Regarding `OCC1OC2OCC3O[C@H](O[C@H]4C(O)C(CO)OC(OCC5O[C@H](O[C@@H](C1O)C2O)C(O)C(O)[C@@H]5O)C4O)C(O)C(O)[C@@H]3O` (stereo partly drawn) [Cyclotetrasaccharide, cyclo{→6)-α-D-glucopyranosyl-(1→3)-α-D-glucopyranosyl-(1→6)-α-D-glucopyranosyl-(1→3)-α-D-glucopyranosyl-(1→}], the “Coloration degree (A480 nm)” value in “Thermostability” (heating time 0 min), in the data set “Thermostability” (heating time 30 min), in the data set “Thermostability” (heating time 60 min) and in “Thermostability” (heating time 90 min) was 0.00 throughout. The Purity in “Thermostability” (heating time 0 min), in “Thermostability” (heating time 30 min), in “Thermostability” (heating time 60 min) and in the data set “Thermostability” (heating time 90 min) was 100% throughout.

Turning to `OC[C@@H](O)[C@@H](O[C@H]1O[C@H](CO)[C@@H](O)[C@H](O)[C@H]1O)[C@H](O)[C@@H](O)CO` [Maltitol, maltitol], in data set [1], the “Product of transferring reaction, Enzyme of Stain A19” value was “+ (a saccharide-transferred product was formed in an amount of over one percent but below 10% to the total sugars)”. Besides, the “Product of transferring reaction, Enzyme of Strain S1” value in data set [2] is “+ (a saccharide-transferred product was formed in an amount of over one percent but below 10% to the total sugars)”. Besides, the “Product of transferring reaction, Enzyme of Strain C11” value in data set [3] is given as “+ (a saccharide-transferred product was formed in an amount of over one percent but below 10% to the total sugars)”. Moreover, the “Product of transferring reaction, Enzyme of Strain C9” value in data set [4] is recorded as “+ (a saccharide-transferred product was formed in an amount of over one percent but below 10% to the total sugars)”. Besides, the “Product of transferring reaction, Enzyme of Strain N75” value in data set [5] is recorded as “+ (a saccharide-transferred product was formed in an amount of over one percent but below 10% to the total sugars)”. For the same compound, the “Decomposition percentage by digestive enzyme” value at amylopsin came to 0.0%; in data set [6], 4.0%.
